Columns and labels:
[1] = target: T1, HCV polymerase (NS5B570n-Con1) (Hepatitis C virus genotype 1b, UniProt Q9WMX2); test: HCV NS5B RNA polymerase activity; format: biochemical, HCV Con1 strain
T1 construct: a 21 amino acid C-terminal deletion of full-length HCV polymerase; made in house; host or cells: E. coli BL21(DE3) pLysS, plasmid pET17b
Experimental: The enzymatic activity of HCV polymerase (NS5B570n-Con1) was measured as the incorporation of radiolabeled nucleotide monophosphates into acid insoluble RNA products. Unincorporated radiolabeled substrate was removed by filtration and scintillant was added to the washed and dried filter plate containing radiolabeled RNA product. The amount of RNA product generated by NS5B570n-Con1 at the end of the reaction was directly proportional to the amount of light emitted by the scintillant.
The HCV polymerase used in the enzymatic activity assay is a 21 amino acid C-terminal deletion of full-length HCV polymerase derived from HCV Con1 strain, genotype 1b (GenBank accession number AJ242654) (NS5B570n-Con1). The NS5B570n-Con1 was sub-cloned downstream to the T7 promoter of the plasmid expression construct pET17b and transformed into E. coli strain BL21(DE3) pLysS for protein expression. A single colony was used to start an innoculum for a 10 L culture in LB media supplemented with 100 μg/mL ampicillin at 37° C. Protein expression was induced by the addition of 0.25 mM isopropyl-β-D-thiogalactopyranoside (IPTG) when the optical density of the culture at […] was 0.8. Induction of protein expression was carried out at 30° C. for 16 h after which the cells were harvested by centrifugation. NS5B570n-Con1 was purified to homogeneity using a three-column purification protocol including subsequent column chromatography on Ni-NTA, SP-Sepharose HP and Superdex 75 resins.
[…] TRK-412; specific activity: 30 to 60 Ci/mmol;), 1 μM each ATP, CTP, and GTP, 40 mM Tris-HCl pH 8.0, 40 mM NaCl, 4 mM DTT (dithiothreitol), 4 mM MgCl2, 5 μl of compound serial diluted in DMSO, and nuclease-free water to a final reaction volume of 50 μl. Enzymatic reactions in the presence of poly A RNA template (see section 0004) contained 20 nM Poly A:oligo(rU)16 premixed (see section 0004), 20 nM NS5B570n-Con1 enzyme, 1 μCi of tritiated UTP (Perkin Elmer catalog no. TRK-412; specific activity: 30 to 60 Ci/mmol), 40 mM Tris-HCl pH 8.0, 40 mM NaCl, 4 mM DTT (dithiothreitol), 4 mM MgCl2, 5 μl of compound serial diluted in DMSO, and nuclease-free water to a final reaction volume of 50 μl. Reaction mixtures were assembled in 96-well filter plates (cat #MADVN0B, Millipore Co.) and incubated for 2 h at 30° C. Reactions were stopped by addition of 10% final (v/v) trichloroacetic acid and incubated for 40 min at 4° C. Reactions were filtered, washed with 8 reaction volumes of 10% (v/v) trichloroacetic acetic acid, 4 reaction volumes of 70% (v/v) ethanol, air dried, and 25 μl of scintillant (Microscint 20, Perkin-Elmer) was added to each reaction well.
Two RNA templates were used to assay compounds described herein. The cIRES RNA template was 377 nucleotide long and consisted of a partial complementary sequence (36 nucleotides) of the core protein, followed by 341 nucleotide of the complementary sequence of the internal ribosome entry site. The poly A RNA template (GE Amersham catalog number 27-4110) was a homopolymeric RNA pre-annealed to a oligo(rU)16 primer at a molar ratio of 3-to-1 (primer-template).
The amount of light emitted from the scintillant was converted to counts per minute (CPM) on a Topcount® plate reader (Perkin-Elmer, Energy Range: Low, Efficiency Mode: Normal, Count Time: 1 min, Background Subtract: none, Cross talk reduction: Off).
Data was analyzed in Excel® (Microsoft) and ActivityBase® (Idbs®). The reaction in the absence of enzyme was used to determine the background signal, which was subtracted from the enzymatic reactions. […] All data was expressed as a percentage of the positive control. The compound concentration at which the enzyme-catalyzed rate of RNA synthesis was reduced by 50%

[2] = NS5B pol inhibition IC50, as in Example 32 (20 nM RNA template)

Row | Structure (SMILES) | IC50 [1, 2] [nM] | melting point [°C] | IC50 ([1]; NS5B pol inhibition IC50, cell values marked ^2, as in Example 32 except RNA template concentration 3 nM (footnote 3)) [nM]
1 | COc1c(/C=C/c2ccc(NS(C)(=O)=O)cc2)cc(-c2cn(C)c(=O)[nH]c2=O)cc1C(C)(C)C [Compound I-8, N-(4-{(E)-2-[3-tert-Butyl-2-methoxy-5-(1-methyl-2,4-dioxo-1,2,3,4-tetrahydro-pyrimidin-5-yl)-phenyl]-vinyl}-phenyl)-methanesulfonamide] | 1.3 | > 300 | 
2 | CC(C)(C)c1cc(CCc2ccc(NS(C)(=O)=O)cc2)c(O)c(-c2ncc[nH]c2=O)c1 [Compound I-5, N-(4-{2-[5-tert-butyl-2-hydroxy-3-(3-oxo-3,4-dihydro-pyrazin-2-yl)-phenyl]-ethyl}-phenyl)-methanesulfonamide] | 92 |  | 
3 | COc1c(/C=C/c2ccc(NS(C)(=O)=O)cc2)cc(-c2c[nH]c(=O)[nH]c2=O)cc1C(F)(F)F [Compound I-35, N-(4-{(E)-2-[5-(2,4-Dioxo-1,2,3,4-tetrahydro-pyrimidin-5-yl)-2-methoxy-3-trifluoromethyl-phenyl]-vinyl}-phenyl)-methanesulfonamide] | 0.5 | 255 to 258 | 
4 | CC(C)(C)c1cc(/C=C/c2ccc(NS(C)(=O)=O)cc2)cc(-c2ccn[nH]c2=O)c1 [Compound I-15] | 3 |  | 
5 | COc1ccc(-c2ccn[nH]c2=O)cc1C(C)(C)C [Compound I-16] | 132 | 202 to 204 | 
6 | COc1c(NC(=O)c2ccc(N)cc2)cc(-c2ccn[nH]c2=O)cc1C(C)(C)C [Compound I-19, 4-Amino-N-[3-tert-butyl-2-methoxy-5-(3-oxo-2,3-dihydro-pyridazin-4-yl)-phenyl]-benzamide] | 15 | 174 to 176 | 
7 | COc1c(/C=C/c2ccc(NS(C)(=O)=O)cc2)cc(-c2cnc(Cl)[nH]c2=O)cc1C(C)(C)C [Compound I-32, N-(4-{(E)-2-[3-tert-Butyl-5-(2-chloro-6-oxo-1,6-dihydro-pyrimidin-5-yl)-2-methoxy-phenyl]-vinyl}-phenyl)-methanesulfonamide] | 5 | > 300 | 
8 | COc1c(CCc2ccc(NC(C)=O)cc2)cc(-c2ncc[nH]c2=O)cc1C(C)(C)C [Compound I-2, N-(4-{2-[3-tert-Butyl-2-methoxy-5-(3-oxo-3,4-dihydro-pyrazin-2-yl)-phenyl]-ethyl}-phenyl)-acetamide] | 710 | 181 to 185 | 
9 | COCc1cc(NS(C)(=O)=O)ccc1/C=C/c1cc(-c2c[nH]c(=O)[nH]c2=O)cc(C(C)(C)C)c1OC [Compound I-40, N-(4-{(E)-2-[3-tert-Butyl-5-(2,4-dioxo-1,2,3,4-tetrahydro-pyrimidin-5-yl)-2-methoxy-phenyl]-vinyl}-3-methoxymethyl-phenyl)-methanesulfonamide] | 2.8 | 172 to 175 | 
10 | COc1c(/C=C/c2ccc(NS(C)(=O)=O)cc2)cc(-c2ncc[nH]c2=O)cc1C1(C(F)F)CC1 [Compound I-31, N-(4-{(E)-2-[3-(1-Difluoromethyl-cyclopropyl)-2-methoxy-5-(3-oxo-3,4-dihydro-pyrazin-2-yl)-phenyl]-vinyl}-phenyl)-methanesulfonamide] | 0.3 | 241 to 243 | 
11 | COc1c(/C=C/c2ccc(NS(C)(=O)=O)cc2F)cc(-c2c[nH]c(=O)[nH]c2=O)cc1C(C)(C)C [Compound I-7, N-(4-{(E)-2-[3-tert-Butyl-5-(2,4-dioxo-1,2,3,4-tetrahydro-pyrimidin-5-yl)-2-methoxy-phenyl]-vinyl}-3-fluoro-phenyl)-methanesulfonamide] | 0.3 |  | 
12 | COc1c(NC(=O)c2ccc(NCC(F)(F)F)cc2)cc(-c2ccn[nH]c2=O)cc1C(C)(C)C [Compound I-20, N-[3-tert-Butyl-2-methoxy-5-(3-oxo-2,3-dihydro-pyridazin-4-yl)-phenyl]-4-(2,2,2-trifluoro-ethylamino)-benzamide] | 5 | 250 to 252 | 3
13 | COc1c(CCc2ccc(NS(C)(=O)=O)cc2)cc(-c2ncc[nH]c2=O)c(F)c1C(C)(C)C [Compound I-3, N-(4-{2-[3-tert-Butyl-4-fluoro-2-methoxy-5-(3-oxo-3,4-dihydro-pyrazin-2-yl)-phenyl]-ethyl}-phenyl)-methanesulfonamide] | 41 | 130 to 132 | 
14 | COc1c(/C=C/c2ccc(NS(C)(=O)=O)cc2)cc(-c2ccn[nH]c2=O)c2c1C(C)(C)CO2 [Compound I-27, N-(4-{(E)-2-[4-Methoxy-3,3-dimethyl-7-(3-oxo-2,3-dihydro-pyridazin-4-yl)-2,3-dihydro-benzofuran-5-yl]-vinyl}-phenyl)-methanesulfonamide] | 0.3 |  | 
15 | COc1c(/C=C/c2ccc(NS(C)(=O)=O)cn2)cc(-c2c[nH]c(=O)[nH]c2=O)cc1C(C)(C)C [Compound I-29, N-(6-{(E)-2-[3-tert-Butyl-5-(2,4-dioxo-1,2,3,4-tetrahydro-pyrimidin-5-yl)-2-methoxy-phenyl]-vinyl}-pyridin-3-yl)-methanesulfonamide] | 1.2 |  | 
16 | COc1c(/C=C/c2ccc(NS(C)(=O)=O)cc2)cc(-c2c(O)nc(C)[nH]c2=O)cc1C(C)(C)C [Compound I-41, N-(4-{(E)-2-[3-tert-Butyl-5-(4-hydroxy-2-methyl-6-oxo-1,6-dihydro-pyrimidin-5-yl)-2-methoxy-phenyl]-vinyl}-phenyl)-methanesulfonamide] | 0.4 |  | 
17 | COc1c(/C=C/c2ccc(NS(C)(=O)=O)cc2)cc(-c2cnc(C)[nH]c2=O)cc1C(C)(C)C [Compound I-43, N-(4-{(E)-2-[3-tert-Butyl-2-methoxy-5-(2-methyl-6-oxo-1,6-dihydro-pyrimidin-5-yl)-phenyl]-vinyl}-phenyl)-methanesulfonamide] | 1.1 |  | 
18 | COCc1cc(NS(C)(=O)=O)ccc1/C=C/c1cc(-c2cnc(OC)[nH]c2=O)cc(C(C)(C)C)c1OC [Compound I-39, N-(4-{(E)-2-[3-tert-Butyl-2-methoxy-5-(2-methoxy-6-oxo-1,6-dihydro-pyrimidin-5-yl)-phenyl]-vinyl}-3-methoxymethyl-phenyl)-methanesulfonamide] | 0.9 |  | 
19 | COc1c(/C=C/c2ccc(NS(C)(=O)=O)cc2)cc(-c2c[nH]c(=O)[nH]c2=O)cc1CC(F)(F)F [Compound I-38, N-(4-{(E)-2-[5-(2,4-Dioxo-1,2,3,4-tetrahydro-pyrimidin-5-yl)-2-methoxy-3-(2,2,2-trifluoro-ethyl)-phenyl]-vinyl}-phenyl)-methanesulfonamide] | 1.4 |  | 
20 | COc1c(/C=C/c2ccc(NS(C)(=O)=O)cc2)cc(-c2ncc[nH]c2=O)cc1C(C)(C)C [Compound I-11, N-(4-{(E)-2-[3-tert-Butyl-2-methoxy-5-(3-oxo-3,4-dihydro-pyrazin-2-yl)-phenyl]-vinyl}-phenyl)-methanesulfonamide] | 4 |  | 
21 | COc1c(-c2ccc3cc(NS(C)(=O)=O)ccc3c2)cc(-c2ncn[nH]c2=O)cc1C(C)(C)C [Compound I-37, N-{6-[3-tert-Butyl-2-methoxy-5-(6-oxo-1,6-dihydro-[1,2,4]triazin-5-yl)-phenyl]-naphthalen-2-yl}-methanesulfonamide] | 0.7 |  | 

— patent US8178547B2, “Heterocyclic antiviral compounds” (Roche Palo Alto LLC, priority 2008, dated 2012)
